Assay results from patent US20090253634A1, “Methods and Compositions for the Treatment of Gastrointestinal Disorders” (MICROBIA, INC., priority 2005, published 2009).
Like-named read-outs stand apart in the source and are kept apart here. Bridge positions count the residues as written; N and C are the ends. Peptide text beside a SMILES is read from it.

Legend:
[1] = oral bioavailability in rats, LCMS detection; assay type: in vivo; details: for AUC / bioavailability: rat, plasma, 10 mg/kg; for bioavailability: oral, read-out: 6 h bioavailability determined by circulating plasma levels
Protocol: Similarly, oral bioavailabity was determined in rats using LCMS methodology. Rat plasma samples containing SEQ ID NO:3 and/or SEQ ID NO:6 were extracted using a Waters Oasis MAX 96 well solid phase extraction (SPE) plate. A 200 μL volume of rat plasma was mixed with 200 μL of ^13C9, ^15N—SEQ ID NO:3 in the well of a prepared SPE plate. The samples were drawn through the stationary phase with 15 mm Hg vacuum. All samples were rinsed with 200 μL of 2% ammonium hydroxide in water followed by 200 μL of 20% methanol in water. The samples were eluted with consecutive 100 μL volumes of 5/20/75 formic acid/water/methanol and 100 μL 5/15/80 formic acid/water/methanol. The samples were dried under nitrogen and resuspended in 100 μL of 20% methanol in water. Samples were analyzed by a Waters Quattro Micro mass spectrometer coupled to a Waters 1525 binary pump with a Waters 2777 autosampler. A 40 μL volume of each sample was injected onto a Thermo Hypersil GOLD C18 column (2.1×50 mm, 5 um). SEQ ID NO:3 and SEQ ID NO:6 were eluted by a gradient over 3 minutes with acetonitrile and water containing 0.05% trifluoroacetic acid. The Quattro Micro mass spectrometer was run in multiple reaction monitoring (MRM) mode using the mass transitions of 764>182 and 682>136 for SEQ ID NO:3 and SEQ ID NO:6 respectively. Using this methodology, SEQ ID NO:3 was dosed orally and by IV to rats at 10 mg/kg. […] To determine the oral biovailability of SEQ ID NO:6, this peptide was dosed to rats at 10 mg/kg. In this experiment, the limit of detection (LOD) for SEQ ID NO:6 was 0.78 nM. SEQ ID NO:6 was detected at all time points for the intravenous dose and was not detected beyond 240 min for the oral dose. For non-detected values, the LOD was used as an upper estimate of the concentration of SEQ ID NO:6. The calculated value for AUCp.o., (0-6h) was […] and AUCi.v., (0-6h) was 1,590,000 nM-min. The 6 h bioavailability of SEQ ID NO:6 determined by circulating plasma levels was 0.08%

bowel habits = experiment: seven-day oral dosing study of bowel habits in humans; assay type: in vivo
Protocol: Seven daily doses of 30, 100, 300, or 1000 μg of chemically synthesized SEQ ID NO:3 were given to 48 healthy subjects. SEQ ID NO:3 or placebo (vehicle) was administered orally in 5.0 mL 50 mM phosphate buffer (pH 6.0) plus 3×20 mL water rinses and 175 mL water after at least a 10-hour fast. In each dosing group, 8 subjects were randomized to receive SEQ ID NO:3 and 4 subjects were randomized to receive placebo. […] The Mean Ease of Passage (FIG. 15d) of stools was tested for subjects treated with 30-1000 μg SEQ ID NO:3.

[2] = test system: visceromotor response to colorectal distension; experiment: water avoidance stress-induced hyperalgesia model and basal visceral nociception; assay type: in vivo, Wistar rats
Protocol: The effect of SEQ ID NO:3 on basal visceral nociception in a model of water avoidance stress-induced visceral hyperalgesia in adult male Wistar rats was tested. The stress involved confining rats to a platform surrounded by water for a period of 1 hour and then measuring their visceromotor response to colonic distension using electromyography (EMG).
Electrode leads were then tunneled subcutaneously and externalized laterally for future access. Following surgery, rats were housed in pairs and allowed to recover for at least 7 days. On the day of the experiment, animals were lightly anesthetized with halothane, and a lubricated latex balloon (6 cm) was inserted intra-anally into the descending colon. Animals were allowed to recover for 30 minutes, and colorectal distension (CRD) was initiated. The CRD procedure consisted of graded intensities of phasic CRD (10, 20, 40, 60 mmHg; 20 s duration; 4 min inter-stimulus interval). Visceromotor response (VMR) to CRD was quantified by measuring EMG activity. […] Animals were allowed 1 hour recovery and then SEQ ID NO:3 or vehicle was orally administered. At 1 hour following administration of SEQ ID NO:3 or vehicle CRD was repeated. […] The mean value (+/−SEM) of in vehicle and SEQ ID NO:3 treated groups (n=7 for each group) is graphically depicted in FIG. 7e.
To determine the effect of SEQ ID NO:3 in a model of water avoidance stress-induced visceral hyperalgesia, a baseline CRD was recorded and then the animals were subjected to 1 hour of water avoidance stress. For water avoidance stress, the test apparatus consisted of a Plexiglas tank with a block affixed to the center of the floor. The tank was filled with fresh room temperature water (25° C.) to within 1 cm of the top of the block. The animals were placed on the block for a period of 1 h. The sham water avoidance stress consisted in placing the rats on the same platform in a waterless container. A second CRD was performed at 24 hours post water avoidance stress. Following the second CRD, animals were allowed 1 hour recovery and then SEQ ID NO:3 or vehicle was orally administered. […]

## C[C@@H]1NC(=O)[C@@H]2CCCN2C(=O)[C@H](CC(N)=O)NC(=O)[C@@H]2CSSC[C@H](N)C(=O)N[C@H]3CSSC[C@H](NC1=O)C(=O)N[C@@H]([C@@H](C)O)C(=O)NCC(=O)N[C@H](C(=O)O)CSSC[C@H](NC(=O)[C@H](Cc1ccc(O)cc1)NC(=O)[C@H](CCC(=O)O)NC3=O)C(=O)N2 [SEQ ID NO:6] (H-CCEYCCNPACTGC-OH; disulfide 1-6, 2-10, 5-13)
[1]; iv, rats, SEQ ID NO:3 10 mg/kg IV, metabolite, read-out: AUC for SEQ ID NO:6 in SEQ ID NO:3 intravenously dosed rats (converted)
  AUC: 59.7 nM·h
[1]; iv, rats, SEQ ID NO:6 10 mg/kg intravenous, read-out: AUCi.v., (0-6h) (converted)
  AUC: 26500 nM·h
[1]; rats, LCMS
  bioavailability: 0.08%
[1]; po, rats, SEQ ID NO:3 10 mg/kg oral, metabolite, read-out: AUC for SEQ ID NO:6 in rats dosed orally with SEQ ID NO:3 (converted)
  AUC: 3.6 nM·h
[1]; po, rats, SEQ ID NO:6 10 mg/kg oral, LOD used for non-detected values, read-out: AUCp.o., (0-6h)
  AUC: < 21.8 nM·h
[1]; rats dosed with SEQ ID NO:3
  detection as metabolite in plasma: detected in the plasma
[1]; rats, SEQ ID NO:6 10 mg/kg oral, LOD 0.78 nM
  last time detected in plasma after the oral dose: ≤ 240 min

## C[C@@H]1NC(=O)[C@@H]2CCCN2C(=O)[C@H](CC(N)=O)NC(=O)[C@@H]2CSSC[C@H](N)C(=O)N[C@H]3CSSC[C@H](NC1=O)C(=O)N[C@@H]([C@@H](C)O)C(=O)NCC(=O)N[C@H](C(=O)N[C@@H](Cc1ccc(O)cc1)C(=O)O)CSSC[C@H](NC(=O)[C@H](Cc1ccc(O)cc1)NC(=O)[C@H](CCC(=O)O)NC3=O)C(=O)N2 [SEQ ID NO:3] (H-CCEYCCNPACTGCY-OH; disulfide 1-6, 2-10, 5-13; N-terminus and C-terminus assumed)
Bowel habits; 1000 μg dose group
  Mean Ease of Passage of stools, baseline versus treatment, versus placebo: greatest difference in baseline versus treatment values
Bowel habits; seven daily oral doses 30-1000 μg, higher doses
  Mean Stool Weight: increase in Mean Stool Weight
Bowel habits; seven daily oral doses 30-1000 μg, higher doses, healthy subjects
  Mean Stool Frequency (stools per week): increase in Mean Stool Frequency score
[1]; iv, rats, 10 mg/kg IV, LCMS, read-out: AUC of SEQ ID NO:3, intravenously administered (converted)
  AUC: 12300 nM·h
[1]; rats, LCMS
  bioavailability: 0.11%
[1]; po, rats, 10 mg/kg oral, LCMS, read-out: AUC of SEQ ID NO:3, orally dosed (converted)
  AUC: 12.9 nM·h
[1]; rats, SEQ ID NO:3 10 mg/kg, LCMS
  6 h bioavailability when AUC values for SEQ ID NO:6 are included: 0.13%
[2]; oral 3 μg/kg
  basal visceral nociception: had no effects
  visceromotor response to CRD 24 hours after water avoidance stress: exhibited anti-hyperalgesic properties
[2]; oral 30 μg/kg
  basal visceral nociception versus vehicle: increased basal visceral nociception
